Data on 10 compounds can be found in US20180237362A1, “NOVEL POLYGODIAL ANALOGS FOR THE TREATMENT OF CANCER AND OTHER PROLIFERATIVE DISEASES” (THE BOARD OF REGENTS OF THE UNIVERSITY OF TAXAS SYSTEM, priority 2015, published 2018).

Broadly, the GI50 is the concentration that inhibits growth by half.

Read-outs that look alike come from different tables or passages of the source.

The subject of data set [1] is human A549 non-small cell lung cancer (NSCLC). In words: MTT antiproliferative assay, A549. The format is cell-based. Particulars: for GI50: 72 h treatment, MTT assay, sextuplicates, read-out: GI50 in vitro values, A549. How it is done: (§1) Human mammary carcinoma MCF-7 (ATCC HTB22) cells were cultured in RPMI supplemented with 10% FBS. The U87 cells (ATCC HTB-14) were cultured in DMEM culture medium, while the A549 cells (DSMZ ACC107) were cultured in RPMI culture medium supplemented with 10% heat-inactivated FBS. The GBM Hs683 (ATCC HTB-138) cells were cultivated in DMEM supplemented with 10% FBS. The human uterine sarcoma MES-SA (ATCC CRL1966) and MES-SA/D×5 cells were cultured in RPMI-1640 medium supplemented with 10% FBS with MES SA/D×5 maintained in the presence of 500 nM Doxorubicin (Sigma). SKMEL-28 cells (ATCC HTB72) and U373 GBM cells (ECACC 08061901) were cultured in RPMI culture medium supplemented with 10% heat-inactivated FBS. Cell culture media were supplemented with 4 mM glutamine (Lonza code BE17-605E), 100 μg/mL gentamicin (Lonza code 17-5182), and penicillin-streptomycin (200 units/ml and 200 μg/ml) (Lonza code 17-602E). The MDA-MB-231 (ATCC HTB-26) epithelial mammary adenocarcinoma cells were cultured in Eagle's minimum essential medium (EMEM; Invitrogen) containing 5% fetal calf serum (FCS, Cambrex), 2 mM L-glutamine (Invitrogen), 0.06% HEPES (Invitrogen) and penicillin (50 IU/ml)/streptomycin (50 µg/ml; Invitrogen) at 37° C. in a humidified atmosphere of 5% CO2 in air. Transformed mouse NPCs were cultured in suspension under neurosphere conditions at 37° C. in a humidified atmosphere of […] and 5% CO2 in DMEM F12 (Invitrogen 11320-074) supplemented with 1×B27 supplement (Invitrogen 17504-044), 5% penicillin-streptomycin (Biochrom 10378-017), 10 ng/ml EGF (R&D systems 236-EG), 10 ng/ml FGF (PeproTech 100-18B).
(§2) Antiproliferative properties of the synthesized compounds were evaluated by the MTT assay. All compounds were dissolved in DMSO at a concentration of either 100 μM or 50 μM prior to cell treatment. The cells were trypsinized and seeded at various cell concentrations depending on the cell type. The cells were grown for 24 h to 72 h, treated with compounds at concentrations ranging from 0.001 to 100 μM and incubated for 48 or 72 h in 100 or 200 μL media depending on the cell line used. The number of experiments and replicates varied depending on the cell line. Cells treated with 0.1% DMSO were used as a negative control; 1 μM PAO was used as a positive control.
(§3) The synthesized C12-Wittig derivatives were evaluated for antiproliferative activities in a panel of cancer cell lines that included apoptosis-resistant human U373 glioblastoma (GBM) (Lefranc et al., 2013), human A549 non-small cell lung cancer (NSCLC) and human SKMEL-28 melanoma (Mathieu et al., 2009) as well as apoptosis-sensitive human Hs683 anaplastic oligodendroglioma (Lefranc et al., 2013) and human MCF-7 breast cancer (Frolova et al., 2013).
(Tetrazolium assays rely on reduction of a dye to a coloured formazan, in cell work by metabolically active cells.)

The next data set deals with human SKMEL-28 melanoma. In words: MTT antiproliferative assay, SKMEL-28. The format is cell-based. The note with it: sextuplicates, read-out: GI50 in vitro values, SKMEL-28. How it is done:
as §1, §2, §3

Data set [2] relates to human MCF-7 breast cancer. Nature of the data set: MTT antiproliferative assay, MCF-7. The format is cell-based. Particulars: sextuplicates, read-out: GI50 in vitro values, MCF-7. Here is the method:
as §1, §2, §3

Data set [3] deals with human U373 glioblastoma (GBM). Nature of the data set: MTT antiproliferative assay, U373. The format is cell-based. The note with it: 72 h treatment, sextuplicates, read-out: GI50 in vitro values, U373. Here is the method: as §1, §2, §3
For data set [4], the system named is human Hs683 anaplastic oligodendroglioma. Nature of the data set: MTT antiproliferative assay, Hs683. The format is cell-based. The note with it: sextuplicates, read-out: GI50 in vitro values, Hs683. How it is done:
as §1, §2, §3

The subject of data set [5] is panel of cancer cell lines (A549, SKMEL-28, MCF-7, U373, Hs683). Nature of the data set: MTT antiproliferative assay, panel of five cancer cell lines. The format is cell-based, human. Particulars: mean over five cell lines, 72 h treatment, MTT assay, read-out: GI50 in vitro values, Mean + SEM. How it is done: as §2, §3
The test system of another data set is OSCC cell line HSC3. Nature of the data set: Cell viability (Cell Titer 96 Aqueous), HSC3. The format is cell-based, human. Particulars: 48 hours; potency order P10, polygodial, P3. The source says:
(§4) Human cancer cell lines were obtained from the American Type Culture Collection (ATCC, Manassas, Va., USA), the European Collection of Cell Culture (ECACC, Salisbury, UK) and the Deutsche Sammlung von Mikroorganismen und Zellkulturen (DSMZ, Braunschweig, Germany). The OSCC cell lines, Cal27 and HSC3 are derived from human primary tongue tumor. Cal27 cells were obtained from the American Type Culture Collection (Rockville, Md.). HSC3 cells were provided by Dr. Brian Schmidt. HeLa cells (cervical cancer cell line) were obtained from ATCC. Cells were cultured in DMEM, containing 10% FBS and 1% penicillin-streptomycin media, at 37° C. in 5% CO2. All cells were authenticated by Genetic DNA Laboratories.
(§5) The cytotoxicity of polygodial, P10, P3, and P27 in Cal27, HSC3, and HeLa cells was examined in vitro using a colorimetric assay, Cell Titer 96® Aqueous Non-Radioactive Cell Proliferation Assay. […] GraphPad Prism4 was used to perform statistical analysis.

The subject of data set [6] is cervical cancer cell line HeLa. In words: Cell viability (Cell Titer 96 Aqueous), HeLa. The format is cell-based, human. The note with it: 48 hours; potency order P10, polygodial, P3.
From the text: as §4, §5

The subject of a further data set is HeLa-derived tumors. Nature of the data set: Mouse xenograft model, HeLa. The format is in vivo, athymic nude mice. How it is done:
Six-week old female athymic nude mice were used in laminar air-flow cabinet in pathogen-free conditions. They were acclimated for one week prior to the start of the study and kept at controlled temperature and humidity, with food and water. Mice were injected subcutaneously in the flank with 2×10^6 Cal27 cells or HeLa cells in 0.1 mL of sterile PBS. When the tumors reached 100 mm^3 (Cal27) and 150 mm^3 (HeLa), the mice were stratified into 4 groups, […], polygodial, P10, P3 and P27 at the concentrations noted in the figure legends.

For data set [7], the target named is T1, CHO cells that overexpress TRPV1 (CHO-TRPV1) (Homo sapiens, UniProt Q8NER1).
T1 construct: expressed in transfected cells; host or cells: CHO cells
Nature of the data set: Calcium imaging, CHO-TRPV1. The format is cell-based. Particulars: polygodial 80 μM, P10 4 μM, P3 50 μM. How it is done: CHO cells that overexpress TRPV1 (CHO-TRPV1) were treated with polygodial (80 μM), P10 ([…]), or P3 (50 μM) and calcium influx was measured. Cells were also pre-treated with the TRPV1 antagonist capsazepine (CPZ; 10 μM) to determine if calcium influx via TRPV1 was inhibited. 3 μM ionomycin was used as a positive control. Fluo-4 Direct Calcium Assay Kit and Sweptfield confocal with Nikon Ti were used to visualize calcium influx and the images were analyzed using ImageJ software.

The test system of a further data set is HeLa cells. In words: Calcium imaging, HeLa. The note with it: polygodial 80 μM, P10 4 μM, P3 50 μM. The format is cell-based, human.
The next data set deals with HSC3 cells. Nature of the data set: Calcium imaging, HSC3. The format is cell-based, human.
Data set [8] deals with U87 glioblastoma cell cultures. Nature of the data set: MTT growth curves, U87. The format is cell-based, human. Particulars: apoptosis-resistant U87 GBM; concentrations up to 100 μM. How it is done:
as §1
Antiproliferative properties of the synthesized compounds were evaluated by the MTT assay. All compounds were dissolved in DMSO at a concentration of either 100 μM or 50 μM prior to cell treatment. The cells were trypsinized and seeded at various cell concentrations depending on the cell type. […]

T1 sequence (Q8NER1 whole entry): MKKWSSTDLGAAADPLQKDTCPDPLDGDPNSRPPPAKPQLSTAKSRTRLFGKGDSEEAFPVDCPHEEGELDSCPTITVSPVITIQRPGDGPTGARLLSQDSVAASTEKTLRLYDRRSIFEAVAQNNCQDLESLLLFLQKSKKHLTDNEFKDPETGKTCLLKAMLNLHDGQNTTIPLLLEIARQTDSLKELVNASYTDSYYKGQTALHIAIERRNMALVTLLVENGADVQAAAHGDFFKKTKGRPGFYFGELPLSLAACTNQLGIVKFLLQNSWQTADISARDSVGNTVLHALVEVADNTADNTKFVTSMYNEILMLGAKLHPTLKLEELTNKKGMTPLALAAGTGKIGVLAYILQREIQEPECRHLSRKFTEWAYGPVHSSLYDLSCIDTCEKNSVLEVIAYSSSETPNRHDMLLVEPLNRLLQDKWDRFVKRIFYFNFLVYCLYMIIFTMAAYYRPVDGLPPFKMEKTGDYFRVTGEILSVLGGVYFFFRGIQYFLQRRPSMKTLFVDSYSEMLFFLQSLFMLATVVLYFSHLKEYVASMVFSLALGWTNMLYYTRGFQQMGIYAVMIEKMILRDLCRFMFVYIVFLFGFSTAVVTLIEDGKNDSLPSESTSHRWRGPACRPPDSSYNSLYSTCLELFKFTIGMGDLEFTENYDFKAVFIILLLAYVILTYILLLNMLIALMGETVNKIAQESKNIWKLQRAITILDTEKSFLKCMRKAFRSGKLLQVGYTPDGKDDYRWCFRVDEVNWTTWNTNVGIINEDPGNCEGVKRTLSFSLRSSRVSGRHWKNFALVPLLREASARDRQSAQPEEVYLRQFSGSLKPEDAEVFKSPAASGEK

Regarding `COC(=O)/C=C/C1=CCC2C(C)(C)CCC[C@]2(C)[C@@H]1C=O` (stereo partly shown), the GI50 in data set [1] (Homo sapiens, A549) is 29 ± 1 µM; in the data set on human SKMEL-28 melanoma (Homo sapiens, SK-MEL-28, 72 h treatment) it was 70 ± 1 µM; in [2] (Homo sapiens, MCF7, 72 h treatment), 28 ± 1 µM; in data set [3] (Homo sapiens, U373 MG) it was 39 ± 1 µM; in data set [4] (Homo sapiens, Hs 683, 72 h treatment), 33 ± 0.5 µM; in [5] (Homo sapiens), 40 ± 8 µM.
As for `CCOC(=O)/C=C/C1=CCC2C(C)(C)CCC[C@]2(C)[C@@H]1C=O` (stereo partly shown) [Compound 6], the GI50 amounted to 25 µM in data set [1]; 29 µM in the data set on human SKMEL-28 melanoma (72 h treatment); 30 µM in data set [2] (72 h treatment); 37 µM in data set [3]; 29 µM in data set [4] (72 h treatment); 30 ± 2 µM in data set [5].
Turning to `CCOC(=O)C(C)=CC1=CCC2C(C)(C)CCCC2(C)C1C=O` (stereo not shown) [Compound 7], the concentration for 50% growth inhibition (GI50) in [1] stood at 26 µM; in the data set with human SKMEL-28 melanoma (72 h treatment) it was 37 µM; in [2] (72 h treatment) it was 27 µM; in data set [3], 37 µM; in data set [4] (72 h treatment) it was 28 µM; in data set [5] it was 31 ± 2 µM.
As for `CC(C)(C)OC(=O)/C=C/C1=CCC2C(C)(C)CCC[C@]2(C)[C@@H]1C=O` (stereo partly shown) [Compound 8], the GI50 in [1] turned out to be 29 µM; in the data set with human SKMEL-28 melanoma (72 h treatment), 41 µM; in data set [2] (72 h treatment), 32 µM; in data set [3], 40 µM; in data set [4] (72 h treatment), 29 µM; in data set [5], 34 ± 3 µM.
As to `CC1(C)CCCC2(C)C(C=O)C(C=CC(=O)OCc3ccccc3)=CCC12` (stereo not shown) [Compound 9], the concentration for 50% growth inhibition (GI50) in data set [1] worked out at 28 µM; with human SKMEL-28 melanoma (72 h treatment) it was 39 µM; in data set [2] (72 h treatment), 27 µM; in [3] it was 39 µM; in data set [4] (72 h treatment) it was 31 µM; in data set [5], 33 ± 3 µM.
Regarding `COC(=O)/C=C/C=C/C1=CCC2C(C)(C)CCC[C@]2(C)[C@@H]1C=O` (stereo partly shown) [Compound 10], the GI50 in data set [1] was 29 µM; in the data set with human SKMEL-28 melanoma (72 h treatment), 25 µM; in data set [2] (72 h treatment), 31 µM; in data set [3] it was 27 µM; in [4] (72 h treatment), 12 µM; in [5], 25 ± 3 µM.
Take `CC1(C)CCC[C@@]2(C)C1CC=C(/C=C/C#N)[C@H]2C=O` (stereo partly shown) [Compound 11]: the GI50 in data set [1] came to 27 µM; in the data set with human SKMEL-28 melanoma (72 h treatment), 42 µM; in data set [2] (72 h treatment), 31 µM; in [3] it was 36 µM; in data set [4] (72 h treatment), 28 µM; in data set [5] it was 33 ± 3 µM.
Consider `CC(=O)/C=C/C1=CCC2C(C)(C)CCC[C@]2(C)[C@@H]1C=O` (stereo partly shown) [Compound 12], for which the GI50 in data set [1] was found to be 24 µM; in the data set with human SKMEL-28 melanoma (72 h treatment) it was 28 µM; in data set [2] (72 h treatment) it was 20 µM; in data set [3], 25 µM; in data set [4] (72 h treatment), 22 µM; in data set [5], 24 ± 1 µM.
As to `CC1(C)CCC[C@]2(C)[C@H](C=O)C(C=O)=CC[C@@H]12` [Compound P10, 9-epi-polygodial], in the data set with OSCC cell line HSC3, the “cancer cell viability, HSC3” value is “reduced cancer cell viability in vitro”. The “cancer cell viability, HeLa” value in data set [6] is given as “reduced cancer cell viability in vitro”. For the same compound, the “anti-tumor effect, HeLa-derived tumors” value in the data set on HeLa-derived tumors (40 μg/100 μl intra-tumor injection every other day for 18 days, polygodial significantly more efficacious than P3) is reported as “not efficacious in vivo”. For the same compound, the “adverse effects, HeLa xenograft mice” value in the data set on HeLa-derived tumors (mouse, in vivo) was “no adverse effects in vivo”. In addition, the “TRPV1 activation (calcium influx), CHO-TRPV1” value in [7] is given as “do not”. Further, the “calcium influx, HeLa” value in the data set with HeLa cells was “did not induce calcium influx”. Also, the “reversal of calcium influx by capsazepine, HSC3” value in the data set with HSC3 cells (CPZ 10 μM) is given as “not reversed”. The “calcium influx, HSC3” value in the data set with HSC3 cells (polygodial 80 μM, P10 4 μM, P3 50 μM) is recorded as “did induce calcium influx”.
For the compound `COc1cc([C@@H]2c3cc4c(cc3[C@H](O)[C@H]3COC(=O)[C@H]23)OCO4)cc(OC)c1OC` [podophyllotoxin, reference compound], the “effect on proliferation/viability of all cells, A549” value in [1] (apoptosis-resistant A549 NSCLC, concentrations up to 100 μM) is on record as “no effect on proliferation of ca. 50% of cells”. For the same compound, the “effect on proliferation/viability of all cells, U87” value in data set [8] is “no effect on proliferation of ca. 50% of cells”.
